The values that follow come from patent US20250320214A1, “ORGANIC COMPOUNDS” (INTRA-CELLULAR THERAPIES, INC., priority 2022, published 2025).

One test concerns the target Mu opioid receptor (Homo sapiens, UniProt P35372). Put plainly: Receptor binding, Mu opioid receptor. The note with it: concentration not printed in this table (row head: Mu (Ki, nM)).
The next test addresses 5-HT2A (Homo sapiens, UniProt P28223). Put plainly: Receptor binding, 5-HT2A. The note with it: at 100 nM; read-out: 5-HT2A maximum inhibition.
Another test addresses D1 (Homo sapiens, UniProt P21728). Put plainly: Receptor binding, D1. The following applies: at 100 nM; read-out: D1 maximum inhibition.
The target of another test is D2 (Homo sapiens, UniProt P14416). Briefly: Receptor binding, D2. The following applies: at 100 nM; read-out: D2 maximum inhibition.
In the next test the target is SERT (Homo sapiens, UniProt P31645). Put plainly: Receptor binding, SERT. The note with it: at 200 nM; read-out: SERT maximum inhibition.
Chain of SERT (P31645 whole entry): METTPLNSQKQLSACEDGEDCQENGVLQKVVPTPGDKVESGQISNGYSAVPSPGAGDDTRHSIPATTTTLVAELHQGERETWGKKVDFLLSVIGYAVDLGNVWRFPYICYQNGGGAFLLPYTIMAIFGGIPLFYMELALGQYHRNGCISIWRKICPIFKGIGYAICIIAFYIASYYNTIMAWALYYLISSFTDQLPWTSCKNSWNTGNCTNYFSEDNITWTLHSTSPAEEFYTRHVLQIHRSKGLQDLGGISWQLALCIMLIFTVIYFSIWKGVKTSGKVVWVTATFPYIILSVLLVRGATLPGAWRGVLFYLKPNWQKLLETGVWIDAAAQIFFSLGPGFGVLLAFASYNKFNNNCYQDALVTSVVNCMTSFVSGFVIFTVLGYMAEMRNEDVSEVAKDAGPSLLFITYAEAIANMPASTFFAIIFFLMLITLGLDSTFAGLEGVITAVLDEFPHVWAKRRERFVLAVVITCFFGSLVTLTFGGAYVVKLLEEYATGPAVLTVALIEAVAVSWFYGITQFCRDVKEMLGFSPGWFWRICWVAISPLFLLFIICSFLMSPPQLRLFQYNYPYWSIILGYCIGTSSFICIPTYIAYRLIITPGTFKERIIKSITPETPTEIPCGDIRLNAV

Chain of Mu opioid receptor (P35372 whole entry): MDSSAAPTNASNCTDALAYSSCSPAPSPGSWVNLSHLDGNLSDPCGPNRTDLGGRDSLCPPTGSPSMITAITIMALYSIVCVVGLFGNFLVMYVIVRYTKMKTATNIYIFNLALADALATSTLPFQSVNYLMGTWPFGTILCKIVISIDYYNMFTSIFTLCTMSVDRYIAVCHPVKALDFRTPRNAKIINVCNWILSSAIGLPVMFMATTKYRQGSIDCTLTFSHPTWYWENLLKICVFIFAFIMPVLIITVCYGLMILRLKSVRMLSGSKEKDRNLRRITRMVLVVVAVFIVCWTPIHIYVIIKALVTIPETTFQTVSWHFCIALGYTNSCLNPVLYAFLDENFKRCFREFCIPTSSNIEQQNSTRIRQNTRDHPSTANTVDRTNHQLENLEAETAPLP
Chain of D2 (P14416 1-414 isoform P14416-2): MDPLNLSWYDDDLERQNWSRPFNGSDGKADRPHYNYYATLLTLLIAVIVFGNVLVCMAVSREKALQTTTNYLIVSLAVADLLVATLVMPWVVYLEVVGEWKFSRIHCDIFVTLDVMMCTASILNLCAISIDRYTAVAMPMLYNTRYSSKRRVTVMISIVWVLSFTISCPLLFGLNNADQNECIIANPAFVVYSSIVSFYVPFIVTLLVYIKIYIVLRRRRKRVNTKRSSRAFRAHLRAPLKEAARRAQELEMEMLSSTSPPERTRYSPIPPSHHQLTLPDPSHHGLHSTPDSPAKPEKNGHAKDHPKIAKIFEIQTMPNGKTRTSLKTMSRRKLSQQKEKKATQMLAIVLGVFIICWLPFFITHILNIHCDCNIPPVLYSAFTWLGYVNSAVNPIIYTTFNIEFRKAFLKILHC
Chain of D1 (P21728 whole entry): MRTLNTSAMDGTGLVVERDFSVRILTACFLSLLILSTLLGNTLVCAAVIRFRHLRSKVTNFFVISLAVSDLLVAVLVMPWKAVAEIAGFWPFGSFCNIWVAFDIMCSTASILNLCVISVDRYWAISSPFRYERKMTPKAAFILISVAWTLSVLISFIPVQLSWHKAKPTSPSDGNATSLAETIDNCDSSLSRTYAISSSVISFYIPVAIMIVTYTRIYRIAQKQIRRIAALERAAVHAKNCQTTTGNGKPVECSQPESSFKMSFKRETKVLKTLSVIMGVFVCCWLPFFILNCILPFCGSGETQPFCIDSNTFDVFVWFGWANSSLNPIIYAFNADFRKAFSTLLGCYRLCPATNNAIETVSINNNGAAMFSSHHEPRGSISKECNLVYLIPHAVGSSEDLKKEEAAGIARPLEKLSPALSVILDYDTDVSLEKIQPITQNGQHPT
Chain of 5-HT2A (P28223 whole entry): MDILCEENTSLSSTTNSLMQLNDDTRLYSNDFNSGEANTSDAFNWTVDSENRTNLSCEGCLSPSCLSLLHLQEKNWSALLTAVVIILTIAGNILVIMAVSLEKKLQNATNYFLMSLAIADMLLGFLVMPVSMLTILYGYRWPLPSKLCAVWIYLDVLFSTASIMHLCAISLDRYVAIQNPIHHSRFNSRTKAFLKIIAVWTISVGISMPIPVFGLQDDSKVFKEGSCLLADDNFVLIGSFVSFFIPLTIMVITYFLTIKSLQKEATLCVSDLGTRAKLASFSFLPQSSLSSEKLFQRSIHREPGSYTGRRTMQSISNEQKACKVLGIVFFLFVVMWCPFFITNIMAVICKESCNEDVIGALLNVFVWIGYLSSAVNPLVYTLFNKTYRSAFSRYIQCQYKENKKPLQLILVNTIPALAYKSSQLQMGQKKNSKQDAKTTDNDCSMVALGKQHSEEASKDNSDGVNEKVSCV

`CN1C(=O)CN2c3c(cccc31)[C@@H]1CN(CCCOc3ccc(F)cc3C#N)CC[C@@H]12` [Ex. 26]: the Mu maximum inhibition on Mu opioid receptor was 5%. Further, the inhibition at 0.1 µM on 5-HT2A amounted to 91%; on D1, 93%; at D2, 14%. In addition, the inhibition at 0.2 µM at SERT stood at 93%.
